Measurements from US20240391862A1, “(1,4,5-TRISUBSTITUTED-1H-PYRAZOL-3-YL)OXY-2-ALKOXY ALKYL ACIDS AND THEIR DERIVATIVES, THEIR SALTS AND THEIR USE AS HERBICIDAL AGENTS” (Bayer AKtiengesellschaft, priority 2021, published 2024).

How the values were obtained:
[1] = system: ALOMY; experiment: Post-emergence herbicidal effect, greenhouse pot test; format: in vivo, Alopecurus myosuroides; details: 320 g/ha, visual rating about 3 weeks after treatment; for pest or weed control at 320 g/ha: Alopecurus myosuroides, 504 h, read-out: Post-emergence effect against ALOMY
Outline: (§1)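 Sandy loam pots, greenhouse. One-leaf stage (2–3 wk after sowing) foliar spray; WP/EC in water + 0.5% additive, 600 l/ha; 20–320 g/ha. Visual score ~3 wk, 0–100% vs untreated.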

[2] = system: VERPE; experiment: as above; format: in vivo, Veronica persica
Outline: as §1

[3] = system: PHBPU; experiment: as above; format: in vivo, Ipomoea purpurea
Outline: as §1

[4] = system: TRZAS; experiment: Post-emergence herbicidal effect and crop plant compatibility, greenhouse pot test; format: in vivo, Triticum aestivum; details: Triticum aestivum, 504 h, 20 g/ha, one-leaf stage, rated visually after about 3 weeks vs untreated controls, read-out: Post-emergence effect at 20 g/ha against TRZAS in %
Source text: • ALOMY: Alopecurus myosuroides SETVI: Setaria viridis • AVEFA: Avena fatua POLCO: Fallopia convolvulus • AMARE: Amaranthus retroflexus ECHCG: Echinochloa crus-galli • LOLRJ: Lolium rigidum STEME: Stellaria media • VERPE: Veronica persica MATIN: Tripleurospermum inodorum • DIGSA: Digitaria sanguinalis ABUTH: Abutylon threophrasti • TRZAS: Triticum aestivum VIOTR: Viola tricolor • BRSNW: Brassica napus ZEAMX: Zea mays • PHBPU: Ipomoea purpurea GLXMA: Glycine max • ORYSA: Oryza sativa HORMU: Hordeum murinum
Seeds of monocotyledonous and dicotyledonous weeds and crop plants are placed in sandy loam in plastic or organic planting pots, covered with soil and cultivated in a greenhouse under controlled growth conditions. 2 to 3 weeks after sowing, the trial plants are treated at the one-leaf stage. The compounds of the invention, formulated in the form of wettable powders (WP) or as emulsion concentrates (EC), are then sprayed onto the green parts of the plants as aqueous suspension or emulsion with addition of 0.5% additive at a water application rate of 600 l/ha (converted). After the test plants have been kept in the greenhouse under optimum growth conditions for about 3 weeks, the activity of the preparations is rated visually in comparison to untreated controls. For example, 100% activity=the plants have died, 0% activity=like control plants.
Tables 20a to 38c below show the effects/crop compatibilities of selected compounds of the general formula (I) on various harmful plants at an application rate corresponding to 20 to 320 g/ha, which were obtained by the trial procedure specified above.

[5] = system: ZEAMX; experiment: as above; format: in vivo, Zea mays; details: one-leaf stage, rated visually after about 3 weeks vs untreated controls; for plant injury at 20 g/ha: read-out: Post-emergence effect at 20 g/ha against ZEAMX in %; for plant injury at 80 g/ha: read-out: Post-emergence effect at 80 g/ha against ZEAMX in %
Outline: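 Greenhouse pot plants in sandy loam receive a one-leaf-stage spray at 20 to 320 g/ha. Activity is assessed visually around 3 weeks afterwards on a 0–100% scale, where 100% means the plants have died.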

[6] = system: KCHSC; experiment: Post-emergence herbicidal effect, greenhouse pot test; format: in vivo; details: 320 g/ha; for pest or weed control at 320 g/ha: 504 h, read-out: Post-emergence effect against KCHSC in %
Outline: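 Visual rating of activity against untreated plants (100% = plants died, 0% = no effect), done about 3 weeks after treatment. Compounds applied at 20–320 g/ha as aqueous spray (600 l/ha, 0.5% additive) from WP or EC formulations onto one-leaf-stage plants grown in sandy loam under greenhouse conditions.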

[7] = system: SETVI; experiment: as above; format: in vivo, Setaria viridis
Outline: as §1

[8] = system: AVEFA; experiment: as above; format: in vivo, Avena fatua; details: 320 g/ha, visual rating about 3 weeks after treatment; for pest or weed control at 320 g/ha: Avena fatua, 504 h, read-out: Post-emergence effect against AVEFA
Outline: as §1

[9] = system: MATIN; experiment: as above; format: in vivo, Tripleurospermum inodorum
Outline: as §1

[10] = system: DIGSA; experiment: as above; format: in vivo, Digitaria sanguinalis; details: visual rating about 3 weeks after treatment
Outline: as §1

[11] = system: ABUTH; experiment: as above; format: in vivo, Abutilon theophrasti; details: visual rating about 3 weeks after treatment
Outline: as §1

[12] = system: ECHCG; experiment: as above; format: in vivo, Echinochloa crus-galli; details: for pest or weed control at 80 g/ha / pest or weed control at 320 g/ha: Echinochloa crus-galli, 504 h, read-out: Post-emergence effect against ECHCG in %
Outline: as §1

[13] = system: POLCO; experiment: as above; format: in vivo, Fallopia convolvulus; details: Fallopia convolvulus, 504 h, read-out: Post-emergence effect against POLCO in %
Outline: as §1

[14] = system: VIOTR; experiment: as above; format: in vivo, Viola tricolor; details: Viola tricolor, 504 h, read-out: Post-emergence effect against VIOTR in %
Outline: as §1

[15] = system: AMARE; experiment: as above; format: in vivo, Amaranthus retroflexus; details: Amaranthus retroflexus, 504 h, visual rating about 3 weeks after treatment, read-out: Post-emergence effect against AMARE
Outline: as §1

[16] = Veronica persica, 504 h, 320 g/ha, read-out: Post-emergence effect against VERPE in %
[17] = Ipomoea purpurea, 504 h, 320 g/ha, read-out: Post-emergence effect against PHBPU in %
[18] = Setaria viridis, 504 h, 320 g/ha, read-out: Post-emergence effect against SETVI in %
[19] = Tripleurospermum inodorum, 504 h, 320 g/ha, read-out: Post-emergence effect against MATIN in %
[20] = Digitaria sanguinalis, 504 h, 320 g/ha, read-out: Post-emergence effect against DIGSA
[21] = Abutilon theophrasti, 504 h, 320 g/ha, read-out: Post-emergence effect against ABUTH

| SMILES | percent crop injury (phytotoxicity) to wheat, post-emergence at 20 g/ha [4] [%] | plant injury at 20 g/ha ([5]; Zea mays, 504 h) [%] | pest or weed control at 320 g/ha [1] [%] | pest or weed control at 320 g/ha [13] [%] | pest or weed control at 320 g/ha [2, 16] [%] | pest or weed control at 320 g/ha [3, 17] [%] | pest or weed control at 320 g/ha [14] [%] | pest or weed control at 320 g/ha [7, 18] [%] | pest or weed control at 320 g/ha [8] [%] | pest or weed control at 320 g/ha [9, 19] [%] | pest or weed control at 320 g/ha [15] [%] | pest or weed control at 320 g/ha [10, 20] [%] | pest or weed control at 320 g/ha [11, 21] [%] | pest or weed control at 80 g/ha ([12]; 80 g/ha) [%] | pest or weed control at 320 g/ha ([12]; 320 g/ha) [%] | plant injury at 80 g/ha ([5]; Zea mays, 504 h) [%] | pest or weed control at 320 g/ha [6] [%] | other results |
| --- | --- | --- | --- | --- | --- | --- | --- | --- | --- | --- | --- | --- | --- | --- | --- | --- | --- | --- |
| CCOC(Oc1nn(-c2ccccc2F)c(-c2ccc(F)nc2)c1Br)C(=O)OCCC(=O)OC (single isomer, unassigned) [Example I-64, Methyl 3-{[(2R*)-2-{[4-bromo-1-(2-fluorophenyl)-5-(6-fluoropyridin-3-yl)-1H-pyrazol-3-yl]oxy}-2-ethoxyethanoyl]oxy}propanoate] | 10 | 20 | – | – | – | – | – | – | – | – | – | – | – | – | – | – | – | Post-emergence effect against ALOMY [1]: 90%; Post-emergence effect against VERPE in % ([2]; 80 g/ha): 80%; Post-emergence effect against VERPE in % ([2]; 320 g/ha): 80%; Post-emergence effect against PHBPU in % ([3]; 80 g/ha): 80%; Post-emergence effect against PHBPU in % ([3]; 320 g/ha): 90%; Post-emergence effect against KCHSC in % [6]: 90%; Post-emergence effect against SETVI in % ([7]; 320 g/ha): 90%; Post-emergence effect against AVEFA [8]: 90%; Post-emergence effect against MATIN in % ([9]; 320 g/ha): 80%; Post-emergence effect against DIGSA ([10]; 320 g/ha): 80%; Post-emergence effect against ABUTH ([11]; 320 g/ha): 80%; Post-emergence effect against ECHCG in % ([12]; 80 g/ha): 80%; Post-emergence effect against ECHCG in % ([12]; 320 g/ha): 90% |
| COC(=O)C(OC)Oc1nn(-c2cccc(Cl)c2F)c(-c2cncc(F)c2)c1Cl (centres unmarked) [Example I-16, Methyl {[4-chloro-1-(3-chloro-2-fluorophenyl)-5-(5-fluoropyridin-3-yl)-1H-pyrazol-3-yl]oxy}(methoxy)acetate] | 10 | – | 90 | 80 | 80 | 90 | 90 | 80 | 90 | 90 | 80 | 90 | 90 | 90 | 90 | – | – | pest or weed control at 20 g/ha ([3]; Ipomoea purpurea, 504 h, 20 g/ha, read-out: Post-emergence effect against PHBPU in %): 80%; pest or weed control at 80 g/ha ([3]; Ipomoea purpurea, 504 h, 80 g/ha, read-out: Post-emergence effect against PHBPU in %): 90%; pest or weed control at 20 g/ha ([14]; 20 g/ha): 80%; pest or weed control at 80 g/ha ([14]; 80 g/ha): 80%; pest or weed control at 80 g/ha ([7]; Setaria viridis, 504 h, 80 g/ha, read-out: Post-emergence effect against SETVI in %): 80%; pest or weed control at 80 g/ha ([9]; Tripleurospermum inodorum, 504 h, 80 g/ha, read-out: Post-emergence effect against MATIN in %): 80%; pest or weed control at 80 g/ha ([15]; 80 g/ha): 80%; pest or weed control at 80 g/ha ([10]; Digitaria sanguinalis, 504 h, 80 g/ha, read-out: Post-emergence effect against DIGSA): 80%; pest or weed control at 80 g/ha ([11]; Abutilon theophrasti, 504 h, 80 g/ha, read-out: Post-emergence effect against ABUTH): 90% |
| CCOC(=O)C(OC)Oc1nn(-c2ccccc2F)c(-c2ccc(F)nc2)c1Br (centres unmarked) [Example I-22] | 20 | 20 | 90 | – | 90 | 90 | 80 | 90 | 80 | 90 | 90 | 80 | – | – | 90 | 20 | – | pest or weed control at 80 g/ha ([2]; Veronica persica, 504 h, 80 g/ha, read-out: Post-emergence effect against VERPE in %): 90% |
| COC(Oc1nn(-c2ncccc2F)c(-c2ccc(F)nc2)c1C1CC1)C(=O)O (centres unmarked) [Example I-56] | 0 | 0 | – | 80 | 80 | 80 | 90 | 80 | 80 | – | – | 80 | 80 | 80 | 90 | 0 | 90 | Post-emergence effect at 320 g/ha against ZEAMX in % ([5]; 320 g/ha): 20% |
| COC(Oc1nn(-c2ncccc2F)c(-c2ccc(F)nc2)c1C(F)(F)F)C(=O)O (centres unmarked) [Example I-57] | 0 | 0 | – | 80 | – | 80 | 80 | – | 80 | – | – | – | – | – | 90 | 0 | 90 | plant injury at 320 g/ha ([5]; Zea mays, 504 h, 320 g/ha, read-out: Post-emergence effect at 320 g/ha against ZEAMX in %): 0% |
| COC(Oc1nn(-c2ccccc2F)c(-c2ccc(F)nc2)c1C1CC1)C(=O)O (centres unmarked) [Example I-69] | 0 | 0 | – | 80 | 80 | 80 | 90 | – | – | 80 | – | – | 90 | – | 90 | 0 | 80 | pest or weed control at 80 g/ha ([13]; 80 g/ha): 80% |
